Measurements published in US20240041042A1, “1-(PYRIDYL)-5-AZINYLPYRAZOLE DERIVATIVES, AND THEIR USE FOR CONTROL OF UNDESIRED PLANT GROWTH” (Bayer Aktiengesellschaft, priority 2020, published 2024).

Tests used:
Assay type in all cases: in vivo
[1] = system: Amaranthus retroflexus (AMARE); assay: Post-emergence herbicidal action against AMARE
Outline: (§1)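 Greenhouse plants sprayed at the one-leaf stage, 2–3 weeks after sowing, with WP or EC formulations plus 0.5% additive at 600 l/ha water. Activity rated visually after about 3 weeks versus untreated controls (100% = dead, 0% = like control), at 320 g/ha or lower.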

[2] = system: Pharbitis purpurea (PHBPU); assay: Pre-emergence herbicidal action against PHBPU
Outline: (§2)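 Dosages of 320 g/ha or less; pre-emergence; WP or EC in aqueous spray, 0.5% additive, 600 l/ha; greenhouse; visual % effect after ~3 wk relative to control pots.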

[3] = system: Setaria viridis (SETVI); assay: Post-emergence herbicidal action against SETVI
Outline: as §1

[4] = system: Matricaria inodora (MATIN); assay: Pre-emergence herbicidal action against MATIN
Outline: as §2

[5] = system: Setaria viridis (SETVI); assay: Pre-emergence herbicidal action against SETVI
Outline: as §2

[6] = system: Alopecurus myosuroides (ALOMY); assay: Post-emergence herbicidal action against ALOMY; conditions: 320 g/ha, visual rating about 3 weeks after treatment vs untreated controls (100% = plants have died, 0% = like control plants)
Outline: as §1

[7] = system: Verconica persica (VERPE); assay: Pre-emergence herbicidal action against VERPE
Outline: as §2

[8] = system: Pharbitis purpurea (PHBPU); assay: Post-emergence herbicidal action against PHBPU
Outline: as §1

[9] = system: Alopecurus myosuroides (ALOMY); assay: Pre-emergence herbicidal action against ALOMY; conditions: scored visually after about 3 weeks, 100% = plants have died
Outline: as §2

[10] = system: Lolium rigidum (LOLRI); assay: Post-emergence herbicidal action against LOLRI
Outline: as §1

[11] = system: Avena fatua (AVEFA); assay: Post-emergence herbicidal action against AVEFA; conditions: visual rating about 3 weeks after treatment
Outline: as §1

[12] = system: Amaranthus retroflexus (AMARE); assay: Pre-emergence herbicidal action against AMARE; conditions: visual scoring after about 3 weeks vs untreated controls
Outline: as §2

[13] = system: Polygonum convolvulus (POLCO); assay: Pre-emergence herbicidal action against POLCO
Outline: as §2

[14] = system: Matricaria inodora (MATIN); assay: Post-emergence herbicidal action against MATIN; conditions: dosage 320 g/ha
Outline: as §1

[15] = system: Echinochloa crus-galli (ECHCG); assay: Pre-emergence herbicidal action against ECHCG
Outline: as §2

[16] = system: Viola tricolor (VIOTR); assay: Post-emergence herbicidal action against VIOTR
Outline: as §1

[17] = system: Avena fatua (AVEFA); assay: Pre-emergence herbicidal action against AVEFA; conditions: visual scoring after about 3 weeks vs untreated controls
Outline: as §2

[18] = system: Viola tricolor (VIOTR); assay: Pre-emergence herbicidal action against VIOTR
Outline: as §2

[19] = system: Abutilon theophrasti (ABUTH); assay: Pre-emergence herbicidal action against ABUTH; conditions: 100% = plants have died
Outline: as §2

[20] = system: Verconica persica (VERPE); assay: Post-emergence herbicidal action against VERPE
Outline: as §1

[21] = system: Echinochloa crus-galli (ECHCG); assay: Post-emergence herbicidal action against ECHCG
Outline: as §1

[22] = system: Lolium rigidum (LOLRI); assay: Pre-emergence herbicidal action against LOLRI
Outline: as §2

[23] = system: Abutilon theophrasti (ABUTH); assay: Post-emergence herbicidal action against ABUTH; conditions: 320 g/ha, visual rating about 3 weeks after treatment vs untreated controls (100% = plants have died, 0% = like control plants)
Outline: as §1

[24] = system: Oryza sativa (ORYSA); conditions: crop plant compatibility, 80 g/ha, effect in comparison to untreated controls
Outline: (§3)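 Percent effect on the crop was judged by eye against untreated controls, where 0% means like control and 100% means dead plants. Plants had been sprayed post-emergence at the one-leaf stage and then kept under optimum greenhouse conditions for about 3 weeks.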

[25] = system: Polygonum convolvulus (POLCO); assay: Post-emergence herbicidal action against POLCO
Outline: as §1

[26] = system: Zea mays (ZEAMX); conditions: crop plant compatibility, 80 g/ha, effect vs untreated controls
Outline: as §3

[27] = 80 g/ha, visual rating about 3 weeks after treatment vs untreated controls (100% = plants have died, 0% = like control plants)
[28] = 320 g/ha, visual rating about 3 weeks after treatment
[29] = Dosage column 320 g/ha (title prints 3200 g/ha), scored visually after about 3 weeks

COC(=O)C(C)NC(=O)[C@@H](C)Oc1nn(-c2ccccn2)c(-c2cncc(F)c2)c1Cl (stereo partly shown) [Example I-199]
90%: Post-emergence action against AMARE in % [1, 28] | Pre-emergence action against PHBPU in % ([2]; dosage 320 g/ha) | Post-emergence action against SETVI in % ([3]; dosage 320 g/ha) | Pre-emergence action against MATIN in % ([4]; dosage 80 g/ha) | Pre-emergence action against SETVI in % ([5]; dosage 80 g/ha) | Post-emergence action against ALOMY in % [6] | Pre-emergence action against VERPE in % ([7]; dosage 80 g/ha) | Pre-emergence action against ALOMY ([9]; 80 g/ha) | Pre-emergence action against ALOMY ([9]; 320 g/ha) | Post-emergence action against LOLRI in % ([10]; dosage 80 g/ha) | Post-emergence action against LOLRI in % ([10]; dosage 320 g/ha) | Pre-emergence action against POLCO in % ([13]; dosage 320 g/ha) | Pre-emergence action against ECHCG in % ([15]; dosage 80 g/ha) | Pre-emergence action against ECHCG in % ([15]; dosage 320 g/ha) | Pre-emergence action against AVEFA in % ([17]; 320 g/ha) | Pre-emergence action against ABUTH [19, 29] | Post-emergence action against VERPE in % ([20]; 320 g/ha, VERPE) | Post-emergence action against VERPE in % ([20]; dosage 80 g/ha) | Post-emergence action against ECHCG in % ([21]; dosage 80 g/ha) | Post-emergence action against ECHCG in % ([21]; dosage 320 g/ha)
100%: Pre-emergence action against MATIN in % ([4]; dosage 320 g/ha) | Pre-emergence action against SETVI in % ([5]; dosage 320 g/ha) | Pre-emergence action against VERPE in % ([7]; dosage 320 g/ha) | Pre-emergence action against AMARE in % ([12]; 80 g/ha) | Pre-emergence action against AMARE in % ([12]; 320 g/ha) | Pre-emergence action against VIOTR in % ([18]; 320 g/ha, Viola tricolor) | Pre-emergence action against VIOTR in % ([18]; dosage 80 g/ha) | Pre-emergence action against LOLRI in % ([22]; dosage 80 g/ha) | Pre-emergence action against LOLRI in % ([22]; dosage 320 g/ha)
80%: Post-emergence action against AMARE in % [1, 27] | Pre-emergence action against PHBPU in % ([2]; dosage 80 g/ha) | Post-emergence action against SETVI in % ([3]; dosage 80 g/ha) | Post-emergence action against PHBPU in % ([8]; dosage 320 g/ha) | Post-emergence action against AVEFA in % ([11]; 320 g/ha) | Pre-emergence action against POLCO in % ([13]; dosage 80 g/ha) | Post-emergence action against MATIN in % [14] | Post-emergence action against VIOTR in % ([16]; 80 g/ha) | Post-emergence action against VIOTR in % ([16]; 320 g/ha) | Pre-emergence action against AVEFA in % ([17]; 80 g/ha) | Pre-emergence action against ABUTH ([19]; 80 g/ha, scored visually after about 3 weeks vs untreated controls, 0% = like control plants) | Post-emergence action against ABUTH in % [23]

O=C(O)COc1nn(-c2nc(F)ccc2F)c(-c2cncc(F)c2)c1Br [Example I-207]
100%: Pre-emergence action against SETVI in % ([5]; dosage 320 g/ha) | Pre-emergence action against AMARE in % ([12]; 320 g/ha) | Pre-emergence action against POLCO in % ([13]; dosage 320 g/ha) | Pre-emergence action against ECHCG in % ([15]; dosage 320 g/ha) | Pre-emergence action against VIOTR in % ([18]; 320 g/ha, Viola tricolor) | Pre-emergence action against VIOTR in % ([18]; dosage 80 g/ha)
90%: Pre-emergence action against PHBPU in % ([2]; dosage 80 g/ha) | Pre-emergence action against PHBPU in % ([2]; dosage 320 g/ha) | Post-emergence action against SETVI in % ([3]; dosage 80 g/ha) | Post-emergence action against SETVI in % ([3]; dosage 320 g/ha) | Pre-emergence action against MATIN in % ([4]; dosage 80 g/ha) | Pre-emergence action against MATIN in % ([4]; dosage 320 g/ha) | Post-emergence action against ALOMY in % [6] | Pre-emergence action against VERPE in % ([7]; dosage 320 g/ha) | Post-emergence action against PHBPU in % ([8]; dosage 320 g/ha) | Pre-emergence action against AMARE in % ([12]; 80 g/ha) | Pre-emergence action against POLCO in % ([13]; dosage 80 g/ha) | Pre-emergence action against ECHCG in % ([15]; dosage 80 g/ha) | Post-emergence action against VERPE in % ([20]; 320 g/ha, VERPE)
80%: Post-emergence action against AMARE in % [1, 28] | Pre-emergence action against SETVI in % ([5]; dosage 80 g/ha) | Post-emergence action against PHBPU in % ([8]; dosage 80 g/ha) | Pre-emergence action against ALOMY ([9]; 320 g/ha) | Post-emergence action against MATIN in % [14] | Post-emergence action against VIOTR in % ([16]; 320 g/ha) | Pre-emergence action against AVEFA in % ([17]; 320 g/ha) | Pre-emergence action against ABUTH [19, 29] | Post-emergence action against VERPE in % ([20]; dosage 80 g/ha) | Post-emergence action against ECHCG in % ([21]; dosage 80 g/ha) | Post-emergence action against ECHCG in % ([21]; dosage 320 g/ha) | Post-emergence action against ABUTH in % [23]
10%: Post-emergence action against ORYSA in % [24]

Cc1cccnc1-n1nc(OCC(=O)O)c(Br)c1-c1ccc(F)nc1 [Example I-324]
0%: Post-emergence action against ZEAMX in % [26]
100%: Pre-emergence action against SETVI in % ([5]; dosage 320 g/ha) | Post-emergence action against ALOMY in % [6] | Pre-emergence action against VERPE in % ([7]; dosage 320 g/ha) | Pre-emergence action against ALOMY ([9]; 80 g/ha) | Pre-emergence action against ALOMY ([9]; 320 g/ha) | Post-emergence action against AVEFA in % ([11]; 80 g/ha) | Post-emergence action against AVEFA in % ([11]; 320 g/ha) | Pre-emergence action against AMARE in % ([12]; 80 g/ha) | Pre-emergence action against AMARE in % ([12]; 320 g/ha) | Pre-emergence action against POLCO in % ([13]; dosage 320 g/ha) | Pre-emergence action against ECHCG in % ([15]; dosage 320 g/ha) | Pre-emergence action against AVEFA in % ([17]; 320 g/ha) | Pre-emergence action against VIOTR in % ([18]; 320 g/ha, Viola tricolor) | Pre-emergence action against VIOTR in % ([18]; dosage 80 g/ha) | Pre-emergence action against LOLRI in % ([22]; dosage 80 g/ha) | Pre-emergence action against LOLRI in % ([22]; dosage 320 g/ha)
80%: Post-emergence action against SETVI in % ([3]; dosage 80 g/ha) | Post-emergence action against POLCO in % ([25]; dosage 80 g/ha) | Post-emergence action against POLCO in % ([25]; dosage 320 g/ha) | Post-emergence action against MATIN in % [14] | Post-emergence action against VIOTR in % ([16]; 80 g/ha) | Post-emergence action against VIOTR in % ([16]; 320 g/ha) | Pre-emergence action against ABUTH [19, 29]
90%: Post-emergence action against AMARE in % [1, 27] | Post-emergence action against AMARE in % [1, 28] | Pre-emergence action against PHBPU in % ([2]; dosage 320 g/ha) | Post-emergence action against SETVI in % ([3]; dosage 320 g/ha) | Pre-emergence action against MATIN in % ([4]; dosage 320 g/ha) | Post-emergence action against PHBPU in % ([8]; dosage 320 g/ha) | Post-emergence action against LOLRI in % ([10]; dosage 320 g/ha) | Pre-emergence action against POLCO in % ([13]; dosage 80 g/ha) | Post-emergence action against VERPE in % ([20]; 320 g/ha, VERPE) | Post-emergence action against VERPE in % ([20]; dosage 80 g/ha) | Post-emergence action against ECHCG in % ([21]; dosage 80 g/ha) | Post-emergence action against ECHCG in % ([21]; dosage 320 g/ha)
